Assay results as given in publication PMC12115342, “Preparation and Evaluation of Tadalafil-Loaded Nanoemulgel for Transdermal Delivery in Cold-Induced Vasoconstriction: A Potential Therapy for Raynaud’s Phenomenon” (Pharmaceutics, 2025).
≈ marks a conversion by molar mass, not a printed value. Read-outs that look alike come from different tables or passages of the source. One block for each compound: values may come before it.

Assays:
[1] = cited from earlier work
[2] = cited from earlier work; remark: listed apart in the source
[3] = Equilibrium solubility of TDL in oils, surfactants and cosurfactants; type: physicochemical
Description: The equilibrium solubility of TDL in selected oils was measured by adding an excess quantity of the drug to 1 mL of oils (Miglyol® 812 N, Miglyol® 840, Miglyol® 829, triacetin, isopropyl myristate, castor oil, oleic acid, cinnamon oil, N-methyl pyrrolidone) separately in 1.5 mL stoppered glass vials and mixed by a vortex mixer. Samples were further placed at room temperature (25 ± 1 °C) on a shaker (Incu-Shaker, Benchmark Scientific, Edison, NJ, USA) at 180 rpm for 72 h. The mixture was further centrifuged for 15 min at 3000 rpm. The upper supernatant was removed, and the amount of drug was determined using UV analyzer (Jenway, Staffs, UK) at a lambda max of 284 nm. The data presented in Table 1 are the mean values and standard deviations (SDs) for each oil sample, based on three replicates.
The solubility screening of TDL in various surfactants (Tween 80, Span 80, Cremophor RH 40, PEG-400, propylene glycol, isopropyl alcohol, and Transcutol) was performed following the same procedure as the oil screening. The results presented in the article are the mean values and standard deviations (SDs) for surfactant and cosurfactant samples, based on three replicates.

[4] = design: method as in doi:10.1016/j.jddst.2022.103166; conditions: cited from earlier work

- solubility at 72 h ([3]; 25 °C, oil or lipid, thermodynamic from solid, in Castor oil, 25 ± 1 °C, 72 h): 450 ± 30 µg/mL (≈ 1160 µM)
- solubility at 72 h ([3]; 25 °C, oil or lipid, thermodynamic from solid, in Cinnamon oil, 25 ± 1 °C, 72 h): 53600 ± 2580 µg/mL (≈ 138000 µM)
- solubility at 72 h ([3]; 25 °C, oil or lipid, thermodynamic from solid, in Miglyol 812N, 25 ± 1 °C, 72 h): 330 ± 10 µg/mL (≈ 847 µM)
- solubility at 72 h ([3]; 25 °C, oil or lipid, thermodynamic from solid, in Miglyol 829, 25 ± 1 °C, 72 h): 910 ± 140 µg/mL (≈ 2340 µM)
- solubility at 72 h ([3]; 25 °C, oil or lipid, thermodynamic from solid, in Miglyol 840, 25 ± 1 °C, 72 h): 290 ± 10 µg/mL (≈ 745 µM)
- solubility at 72 h ([3]; 25 °C, oil or lipid, thermodynamic from solid, in Oleic acid, 25 ± 1 °C, 72 h): 190 ± 10 µg/mL (≈ 488 µM)
- solubility at 72 h ([3]; 25 °C, oil or lipid, thermodynamic from solid, in Triacetin, 25 ± 1 °C, 72 h): 3830 ± 70 µg/mL (≈ 9840 µM)
- solubility at 72 h ([3]; 25 °C, organic solvent or mixture, thermodynamic from solid, in Isopropyl alcohol): 510 ± 10 µg/mL (≈ 1310 µM)
- solubility at 72 h ([3]; 25 °C, organic solvent or mixture, thermodynamic from solid, in PEG-400): 14000 ± 1010 µg/mL (≈ 35900 µM)
- solubility at 72 h ([3]; 25 °C, organic solvent or mixture, thermodynamic from solid, in Propylene glycol): 840 ± 50 µg/mL (≈ 2160 µM)
- solubility at 72 h ([3]; 25 °C, organic solvent or mixture, thermodynamic from solid, in Transcutol): 33400 ± 1320 µg/mL (≈ 85700 µM)
- solubility at 72 h ([3]; 25 °C, thermodynamic from solid, in Cremophor RH 40): 27600 ± 1230 µg/mL (≈ 70800 µM)
- solubility at 72 h ([3]; 25 °C, thermodynamic from solid, in N-methyl pyrrolidone, 25 ± 1 °C, 72 h): 325000 ± 4560 µg/mL (≈ 835000 µM)
- solubility at 72 h ([3]; 25 °C, thermodynamic from solid, in Span 80): 170 ± 30 µg/mL (≈ 437 µM)
- solubility at 72 h ([3]; 25 °C, thermodynamic from solid, in Tween 80): 280 ± 10 µg/mL (≈ 719 µM)
- solubility at 72 h ([3]; in Cremophor RH 40): ~27600 µg/mL (≈ 70800 µM)
- solubility at 72 h ([3]; in Transcutol): ~33400 µg/mL (≈ 85700 µM)
SMILES: CN1CC(=O)N2[C@H](c3ccc4c(c3)OCO4)c3[nH]c4ccccc4c3C[C@@H]2C1=O [Tadalafil]
- half-life [1]: 15 to 17 h
- water solubility [2]: 3.2 µg/mL (≈ 8.22 µM)
- solubility in water ([2]; lower literature value): 0.73 µg/mL (≈ 1.87 µM)
- solubility in water ([2]; upper literature value): 3.48 µg/mL (≈ 8.94 µM)
- log p [4]: 2.89

SMILES: CCCc1nn(C)c2c(=O)[nH]c(-c3cc(S(=O)(=O)N4CCN(C)CC4)ccc3OCC)nc12 [sildenafil]
- half-life [1]: 3.8 h
